Assay results as given in patent publication US6737383B1, “Herbicidal oxadiazolidines” (priority 1999, dated 2004).

How the values were obtained:
bamyardgrass = test: Test B flood test barnyardgrass; format: in vivo, Echinochloa crus-galli
In short: (§1)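 Each value is a visual injury score relative to controls, with 10 meaning complete control and 0 no effect. Evaluation took place twelve to sixteen days after the 2-leaf-stage plants were treated and kept in the greenhouse.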

rice = test: Test B flood test rice; format: in vivo, Oryza sativa
In short: as §1

crabgrass = test: Test B pre/postemergence crabgrass; format: in vivo, Digitaria sanguinalis
In short: (§2)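 Test chemicals in a non-phytotoxic solvent mixture with surfactant were sprayed preemergence onto planted seeds and postemergence onto plants 2 to 18 cm tall (1- to 4-leaf stage). After twelve to sixteen days in a greenhouse, injury was visually rated against untreated controls from 0 (no effect) to 10 (complete control).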

rape = test: Test B pre/postemergence rape; format: in vivo, Brassica napus
In short: as §2

velvetleaf = test: Test B pre/postemergence velvetleaf; format: in vivo, Abutilon theophrasti
In short: as §2

morningglory = test: Test B pre/postemergence morningglory; format: in vivo, Ipomoea hederacea
In short: as §2

giant foxtail = test: Test B pre/postemergence giant foxtail; format: in vivo, Setaria faberii
In short: as §2

wheat = test: Test B pre/postemergence wheat; format: in vivo, Triticum aestivum
In short: as §2

duck salad = test: Test B flood test duck salad; format: in vivo, Heteranthera limosa
In short: as §1

corn = test: Test B pre/postemergence corn; format: in vivo, Zea mays
In short: as §2

surinam grass = test: Test B pre/postemergence surinam grass; format: in vivo, Brachiaria decumbens
In short: as §2

cocklebur = test: Test B pre/postemergence cocklebur; format: in vivo, Xanthium strumarium
In short: as §2

sugar beet = test: Test B pre/postemergence sugar beet; format: in vivo, Beta vulgaris
In short: as §2

smallflower flatsedge = test: Test B flood test smallflower flatsedge; format: in vivo, Cyperus difformis
In short: as §1

purple nutsedge = test: Test B pre/postemergence purple nutsedge; format: in vivo, Cyperus rotundus
In short: as §2

soybean = test: Test B pre/postemergence soybean; format: in vivo, Glycine max
In short: as §2

wild oat = test: Test B pre/postemergence wild oat; format: in vivo, Avena fatua
In short: as §2

blackgrass = test: Test B pre/postemergence blackgrass; format: in vivo, Alopecurus myosuroides
In short: as §2

pigweed = test: Test B pre/postemergence pigweed; format: in vivo, Amaranthus retroflexus
In short: as §2

bedstraw = test: Test B pre/postemergence bedstraw; format: in vivo, Galium aparine
In short: as §2

[1] = Rate 62 g/ha, headed Pre-emergence (flood test species), scale 0 to 10 (0 no effect, 10 complete control)
[2] = Rate 125 g/ha, Pre-emergence, flood test species, scale 0 to 10 where 0 is no effect and 10 is complete control
[3] = Rate 250 g/ha, Pre-emergence, flood-test species, scale 0 to 10, 0 is no effect, 10 is complete control
[4] = Rate 500 g/ha, Pre-emergence, flood test species, scale 0 to 10 (0 no effect, 10 complete control)
[5] = Postemergence, Rate 125 g/ha, scale 0 to 10, 0 is no effect, 10 is complete control
[6] = Preemergence, Rate 62 g/ha, scale of 0 to 10 where 0 is no effect and 10 is complete control
[7] = Preemergence, Rate 250 g/ha, scale of 0 to 10 where 0 is no effect and 10 is complete control
[8] = Preemergence, Rate 500 g/ha, scale of 0 to 10 where 0 is no effect and 10 is complete control
[9] = Rate 62 g/ha, Postemergence, scale 0 to 10 (0 no effect, 10 complete control)
[10] = Rate 500 g/ha, Postemergence, scale 0 to 10, 0 no effect, 10 complete control
[11] = Rate 250 g/ha, Postemergence, scale of 0 to 10 where 0 is no effect and 10 is complete control

In the case of `Cc1ccccc1-n1c(=O)on(C(=O)N(c2ccc(Cl)cc2)C(C)C2CC2)c1=O` (stereo not shown) [Compound 330], the “Barnyardgrass plant response rating” value (bamyardgrass; [1]) is reported as 0, the “Barnyardgrass plant response rating” value (bamyardgrass; [2]) is reported as 0 and the “Barnyardgrass plant response rating” value (bamyardgrass; [3]) is reported as 0. The “Barnyardgrass plant response rating” value (bamyardgrass; [4]) was 0, the “Rice plant response rating” value (rice; [1]) was 0 and the “Rice plant response rating” value (rice; [2]) was 0. The “Rice plant response rating” value (rice; [3]) was 0, the “Rice plant response rating” value (rice; [4]) was 0 and the “Plant response rating, Crabgrass” value (crabgrass; [5]) was 0. The “Crabgrass plant response rating” value (crabgrass; [6]) was 0, the “Crabgrass plant response rating (0 to 10 scale)” value (crabgrass; Preemergence, Rate 125 g/ha) was 0 and the “Crabgrass plant response rating” value (crabgrass; [7]) was 0. The “Crabgrass plant response rating” value (crabgrass; [8]) was 0, the “Crabgrass plant response rating” value (crabgrass; [9]) was 0 and the “Plant response rating, Crabgrass” value (crabgrass; [10]) was 0. The “Plant response rating, Rape” value (rape; [5]) was 0, the “Rape plant response rating” value (rape; [6]) was 0 and the “Rape plant response rating (0 to 10 scale)” value (rape; Preemergence, Rate 125 g/ha) was 0. The “Rape plant response rating” value (rape; [7]) was 0, the “Rape plant response rating” value (rape; [8]) was 0 and the “Rape plant response rating” value (rape; [9]) was 0. For the same compound, the “Plant response rating, Rape” value (rape; [10]) was 0, the “Plant response rating, Velvetleaf” value (velvetleaf; [5]) was 0 and the “Velvetleaf plant response rating” value (velvetleaf; [6]) was 0. For the same compound, the “Velvetleaf plant response rating (0 to 10 scale)” value (velvetleaf; Preemergence, Rate 125 g/ha) was 0, the “Velvetleaf plant response rating” value (velvetleaf; [7]) was 0 and the “Velvetleaf plant response rating” value (velvetleaf; [8]) was 0. For the same compound, the “Velvetleaf plant response rating” value (velvetleaf; [9]) was 0, the “Plant response rating, Velvetleaf” value (velvetleaf; [10]) was 0 and the “Plant response rating, Morningglory” value (morningglory; [5]) was 0. The “Morningglory plant response rating” value (morningglory; [6]) was 0, the “Morningglory plant response rating (0 to 10 scale)” value (morningglory; Preemergence, Rate 125 g/ha) was 0 and the “Morningglory plant response rating” value (morningglory; [7]) was 0. The “Morningglory plant response rating” value (morningglory; [8]) was 0, the “Morningglory plant response rating” value (morningglory; [9]) was 0 and the “Plant response rating, Morningglory” value (morningglory; [10]) was 4. For the same compound, the “Plant response rating, Giant foxtail” value (giant foxtail; [5]) was 0, the “Giant foxtail plant response rating” value (giant foxtail; [6]) was 0 and the “Giant foxtail plant response rating (0 to 10 scale)” value (giant foxtail; Preemergence, Rate 125 g/ha) was 0. For the same compound, the “Giant foxtail plant response rating” value (giant foxtail; [7]) was 0, the “Giant foxtail plant response rating” value (giant foxtail; [8]) was 0 and the “Giant foxtail plant response rating” value (giant foxtail; [9]) was 0. For the same compound, the “Plant response rating, Giant foxtail” value (giant foxtail; [10]) was 0, the “Plant response rating, Wheat” value (wheat; [5]) was 0 and the “Wheat plant response rating” value (wheat; [6]) was 0. The “Wheat plant response rating (0 to 10 scale)” value (wheat; Preemergence, Rate 125 g/ha) was 0, the “Wheat plant response rating” value (wheat; [7]) was 0 and the “Wheat plant response rating” value (wheat; [8]) was 0. For the same compound, the “Wheat plant response rating” value (wheat; [9]) was 0, the “Plant response rating, Wheat” value (wheat; [10]) was 0 and the “Ducksalad plant response rating” value (duck salad; [1]) was 0. The “Ducksalad plant response rating” value (duck salad; [2]) was 0, the “Ducksalad plant response rating” value (duck salad; [3]) was 0 and the “Ducksalad plant response rating” value (duck salad; [4]) was 0. For the same compound, the “Plant response rating, Corn” value (corn; [5]) was 0, the “Corn plant response rating” value (corn; [6]) was 0 and the “Corn plant response rating (0 to 10 scale)” value (corn; Preemergence, Rate 125 g/ha) was 0. The “Corn plant response rating” value (corn; [7]) was 0, the “Corn plant response rating” value (corn; [8]) was 0 and the “Corn plant response rating” value (corn; [9]) was 0. For the same compound, the “Plant response rating, Corn” value (corn; [10]) was 0, the “Plant response rating, B. signalgrass” value (surinam grass; [5]) was 0 and the “B. signalgrass plant response rating” value (surinam grass; [6]) was 0. The “B. signalgrass plant response rating (0 to 10 scale, 0 is no effect, 10 is complete control)” value (surinam grass; Preemergence, Rate 125 g/ha) was 0, the “B. signalgrass plant response rating” value (surinam grass; [7]) was 0 and the “B. signalgrass plant response rating” value (surinam grass; [8]) was 0. For the same compound, the “B. signalgrass plant response rating” value (surinam grass; [9]) was 0, the “Plant response rating, B. signalgrass” value (surinam grass; [11]) was 0 and the “Plant response rating, B. signalgrass” value (surinam grass; [10]) was 0. The “Plant response rating, Cocklebur” value (cocklebur; [5]) was 0, the “Cocklebur plant response rating” value (cocklebur; [6]) was 0 and the “Cocklebur plant response rating (0 to 10 scale)” value (cocklebur; Preemergence, Rate 125 g/ha) was 0. The “Cocklebur plant response rating” value (cocklebur; [7]) was 0, the “Cocklebur plant response rating” value (cocklebur; [8]) was 0 and the “Cocklebur plant response rating” value (cocklebur; [9]) was 0. The “Plant response rating, Cocklebur” value (cocklebur; [10]) was 0, the “Plant response rating, Sugarbeets” value (sugar beet; [5]) was 0 and the “Sugarbeets plant response rating” value (sugar beet; [6]) was 0. For the same compound, the “Sugarbeets plant response rating (0 to 10 scale)” value (sugar beet; Preemergence, Rate 125 g/ha) was 0, the “Sugarbeets plant response rating” value (sugar beet; [7]) was 0 and the “Sugarbeets plant response rating” value (sugar beet; [8]) was 0. For the same compound, the “Sugarbeets plant response rating” value (sugar beet; [9]) was 0, the “Plant response rating, Sugarbeets” value (sugar beet; [10]) was 0 and the “S. Flatsedge plant response rating” value (smallflower flatsedge; [1]) was 0. For the same compound, the “S. Flatsedge plant response rating” value (smallflower flatsedge; [2]) was 0, the “S. Flatsedge plant response rating” value (smallflower flatsedge; [3]) was 0 and the “S. Flatsedge plant response rating” value (smallflower flatsedge; [4]) was 0. For the same compound, the “Plant response rating, Nutsedge” value (purple nutsedge; [5]) was 0, the “Nutsedge plant response rating” value (purple nutsedge; [6]) was 0 and the “Nutsedge plant response rating (0 to 10 scale)” value (purple nutsedge; Preemergence, Rate 125 g/ha) was 0. The “Nutsedge plant response rating” value (purple nutsedge; [7]) was 0, the “Nutsedge plant response rating” value (purple nutsedge; [8]) was 0 and the “Nutsedge plant response rating” value (purple nutsedge; [9]) was 0. For the same compound, the “Plant response rating, Nutsedge” value (purple nutsedge; [10]) was 0, the “Plant response rating, Soybean” value (soybean; [5]) was 1 and the “Soybean plant response rating” value (soybean; [6]) was 0. The “Soybean plant response rating (0 to 10 scale)” value (soybean; Preemergence, Rate 125 g/ha) was 0, the “Soybean plant response rating” value (soybean; [7]) was 0 and the “Soybean plant response rating” value (soybean; [8]) was 0. For the same compound, the “Soybean plant response rating” value (soybean; [9]) was 1, the “Plant response rating, Soybean” value (soybean; [10]) was 1 and the “Plant response rating, Wild oats” value (wild oat; [5]) was 0. For the same compound, the “Wild oats plant response rating” value (wild oat; [6]) was 0, the “Wild oats plant response rating (0 to 10 scale)” value (wild oat; Preemergence, Rate 125 g/ha) was 0 and the “Wild oats plant response rating” value (wild oat; [7]) was 0. The “Wild oats plant response rating” value (wild oat; [8]) was 0, the “Wild oats plant response rating” value (wild oat; [9]) was 0 and the “Plant response rating, Wild oats” value (wild oat; [10]) was 0. The “Plant response rating, Blackgrass” value (blackgrass; [5]) was 0, the “Blackgrass plant response rating” value (blackgrass; [6]) was 0 and the “Blackgrass plant response rating (0 to 10 scale)” value (blackgrass; Preemergence, Rate 125 g/ha) was 0. The “Blackgrass plant response rating” value (blackgrass; [7]) was 0, the “Blackgrass plant response rating” value (blackgrass; [9]) was 0 and the “Plant response rating, Blackgrass” value (blackgrass; [11]) was 0. For the same compound, the “Plant response rating, Blackgrass” value (blackgrass; [10]) was 0, the “Plant response rating, Redroot pigweed” value (pigweed; [5]) was 0 and the “Redroot pigweed plant response rating” value (pigweed; [6]) was 0. The “Redroot pigweed plant response rating (0 to 10 scale)” value (pigweed; Preemergence, Rate 125 g/ha) was 0, the “Redroot pigweed plant response rating” value (pigweed; [7]) was 0 and the “Redroot pigweed plant response rating” value (pigweed; [8]) was 0. The “Redroot pigweed plant response rating” value (pigweed; [9]) was 0, the “Plant response rating, Redroot pigweed” value (pigweed; [10]) was 0 and the “Plant response rating, Bedstraw” value (bedstraw; [5]) was 0. The “Bedstraw plant response rating (0 to 10 scale)” value (bedstraw; Preemergence, Rate 125 g/ha) was 0, the “Bedstraw plant response rating” value (bedstraw; [7]) was 0 and the “Bedstraw plant response rating” value (bedstraw; [8]) was 0. For the same compound, the “Bedstraw plant response rating” value (bedstraw; [9]) was 0.
